The values that follow come from US20090054392A1, “NAPHTHYLPYRIMIDINE, NAPHTHYLPYRAZINE AND NAPHTHYLPYRIDAZINE ANALOGS AND THEIR USE AS AGONISTS OF THE WNT-BETA-CATENIN CELLULAR MESSAGING SYSTEM” (Wyeth, priority 2007, published 2009).

Structures are written as SMILES.

The subject of this data set is Dkk1-LRP5-TCF-Luciferase. In words: Functional Dkk1-LRP5-TCF-Luciferase Assay in U2OS Cells. The settings on record: for EC50 / fold induction at 2 µM / fold induction at 20 µM: Homo sapiens, U2OS; for fold induction at 2 µM: read-out: B = TCF ACTIVITY/DMSO CONTROL Fold induction @ 2.0 uM, 2.0 uM compound; for fold induction at 20 µM: read-out: C = TCF ACTIVITY/DMSO CONTROL Fold induction @ 20.0 uM, 20.0 uM compound; for A = MAX FOLD Induction/DMSO CONTROL: maximum fold induction over DMSO control.

Procedure: Biological Evaluation—Functional Dkk1-LRP5-TCF-Luciferase Assay in U2OS Cells
Frozen U2OS-Dkk1-HTS Reporter cells generation: U2OS Human Bone derived cells (Osteosarcoma) are grown in McCoy's 5A Medium (Modified), with L -glutamine (GIBCO Cat No. 16600-082)+1% Pen-Strep+5% FBS) plated at 1×10^7 cells/T175 cm flask. The next day, the cells are co-transfected overnight with the following plasmids: (a) Test reporter (16×TCF-TK-FireFly-Luci), (b) Internal Control Reporter (TK-Renilla-Luci), (c) Wnt3a and (d) Dkk1. GIBCO's Lipofectamine 2000 and OptiMEM are used for the transfection. After a minimum of 4 hr of transfection at 37° C., the plasmid-transfected cells are trypsinized, counted, and suspended in freezing medium (95% FBS+5% DMSO). The reporter cells are frozen at 1×10^7/ml concentrations, aliquoted into 0.5 ml or 2.5 ml/tube and stored at 70° C.
The following day, test compounds are added under HTS setup by Plate Track into 384 well plates (white, TC treated, Falcon plate) such that the final concentration of the compounds in 20 μL/well cell will be 5 μg/ml (final concentration of DMSO=0.25% and final compound concentration=20 μM). Vials of frozen reporter cells are thawed by warming the vial in a 37° C. water bath for 60-120 seconds with some shaking until the cells formed a suspension. The thawed cells are transferred into a cold 50 ml (or larger) tube and mixed well by gentle pipetting. The appropriate amount of cold Phenol Red Free RPMI medium-1640 (GIBCO, Cat #11835-030) with L-glutamine is added, both with ˜5% FBS (GIBCO-BRL, Cat. #16000-044), so that 20 μl of the final cell suspension will contain ˜5,000 cells. The cell dilution is done such that the final concentration of FBS is ˜5%.
Diluted cells (20 μl) are added into each well in a 384 well plate. The plate is incubated at 37° C. under 5% CO2 for ˜20 h. Bright-Glo substrate, 2.5 μl/well is added, and the Fire Fly Luciferase is measured using VLUX (60 second exposure) immediately after the substrate is added. Test compounds are dissolved in DMSO (100%) and added to specified wells. Raw luciferase signal data obtained as relative luminescence units (RLUs) for the test compounds are normalized to the signal of the mean of the sample reporter cell plate with DMSO.

As a reminder, the EC50 is the concentration at which the effect is half-maximal. In the case of `CC(=O)N(C)[C@H]1CCN(c2nccc(-c3ccc4ccccc4c3)n2)C1` [N-methyl-N-{(3S)-1-[4-(2-naphthyl)pyrimidin-2-yl]pyrrolidin-3-yl}acetamide], the concentration giving a half-maximal response (EC50) was 2.15 µM, the fold induction at 2 µM came to 2.38, the fold induction at 20 µM was found to be 2.89 and the “A = MAX FOLD Induction/DMSO CONTROL” value is reported as 2.533 fold.
For `N#Cc1ccc(C(=O)NC2CCCC(Nc3nccc(-c4ccc5ccccc5c4)n3)C2)cc1` (stereo not shown) [4-cyano-N-(3-{[4-(2-naphthyl)pyrimidin-2-yl]amino}cyclohexyl)benzamide], the fold induction at 2 µM was found to be 1.15 and the fold induction at 20 µM was 0.24.
As for `c1ccc2cc(-c3ccnc(N[C@@H]4CCNC4)n3)ccc2c1` [4-(2-naphthyl)-N-[(3R)-pyrrolidin-3-yl]pyrimidin-2-amine], the EC50 came out at 9.23 µM, the fold induction at 2 µM worked out at 1.76, the fold induction at 20 µM was 3.98 and the “A = MAX FOLD Induction/DMSO CONTROL” value is given as 6.560 fold.
As to `NCC1CCN(c2nccc(-c3ccc4cc(-c5ccccc5)ccc4c3)n2)CC1` [1-{1-[4-(6-phenyl-2-naphthyl)pyrimidin-2-yl]piperidin-4-yl}methanamine], the fold induction at 2 µM was 1.63.
Regarding `CN(C)[C@H]1CCN(C(=O)[C@@H]2CCCN2c2nccc(-c3ccc4ccccc4c3)n2)C1` [(3S)—N,N-dimethyl-1-{1-[4-(2-naphthyl)pyrimidin-2-yl]-L-prolyl}pyrrolidin-3-amine], the fold induction at 2 µM came to 1.16, the fold induction at 20 µM came to 3.37 and the “A = MAX FOLD Induction/DMSO CONTROL” value was 2.175 fold.
With `O[C@@H]1CCCN(CC2CCN(c3nccc(-c4ccc5ccccc5c4)n3)C2)C1` (stereo partly drawn) [(3R)-1-({1-[4-(2-naphthyl)pyrimidin-2-yl]pyrrolidin-3-yl}methyl)piperidin-3-ol], the EC50 came out at 1.03 µM, the fold induction at 2 µM came out at 2.34, the fold induction at 20 µM was determined as 0.01 and the “A = MAX FOLD Induction/DMSO CONTROL” value came to 3.745 fold.
Turning to `C[C@@H](N)C1CCN(c2nccc(-c3ccc4ccccc4c3)n2)CC1` [(1R)-1-{1-[4-(2-naphthyl)pyrimidin-2-yl]piperidin-4-yl}ethanamine], it took 0.87 µM to reach a half-maximal effect (EC50) and the “A = MAX FOLD Induction/DMSO CONTROL” value was determined as 2.280 fold.
For the molecule `NC(=O)N1CC[C@@H](Nc2nccc(-c3ccc4ccccc4c3)n2)C1` [(3R)-3-{[4-(2-naphthyl)pyrimidin-2-yl]amino}pyrrolidine-1-carboxamide], a half-maximal effect (EC50) was put at 8.71 µM, the fold induction at 20 µM is 2.42 and the “A = MAX FOLD Induction/DMSO CONTROL” value was found to be 5.295 fold.
`c1ccc2cc(-c3ccnc(N4CC[C@H](CN5CCCC5)C4)n3)ccc2c1` [4-(2-naphthyl)-2-[(3R)-3-(pyrrolidin-1-ylmethyl)pyrrolidin-1-yl]pyrimidine]: the midpoint of the response, the EC50, lay at 7.67 µM; the fold induction at 2 µM is 1.5; the fold induction at 20 µM came out at 6.07; the “A = MAX FOLD Induction/DMSO CONTROL” value came out at 6.053 fold.
On to `NC(=O)C1CCN(c2nccc(-c3ccc4ccccc4c3)n2)CC1` [1-[4-(2-naphthyl)pyrimidin-2-yl]piperidine-4-carboxamide], for which the fold induction at 2 µM amounted to 1.62, the fold induction at 20 µM was determined as 1.15 and the “A = MAX FOLD Induction/DMSO CONTROL” value amounted to 1.660 fold.
For the molecule `CC(C)NC(=O)NCCC1CCN(c2nccc(-c3ccc4ccccc4c3)n2)CC1` [N-isopropyl-N′-(2-{1-[4-(2-naphthyl)pyrimidin-2-yl]piperidin-4-yl}ethyl)urea], the fold induction at 2 µM worked out at 1.46 and the fold induction at 20 µM was 1.58.
The corresponding values for `CN(C)S(=O)(=O)NCC1CCN(c2nccc(-c3ccc4ccccc4c3)n2)C1` (stereo not shown) [N,N-dimethyl-N′-({1-[4-(2-naphthyl)pyrimidin-2-yl]pyrrolidin-3-yl}methyl)sulfamide] are 0.99 and 1.2.
Turning to `CN(C)C(=O)N[C@@H]1CCN(c2nccc(-c3ccc4ccccc4c3)n2)C1` [N,N-dimethyl-N′-{(3R)-1-[4-(2-naphthyl)pyrimidin-2-yl]pyrrolidin-3-yl}urea], the fold induction at 2 µM was found to be 1.79 and the fold induction at 20 µM turned out to be 0.26.
`O=C1CCCCN1C[C@@H]1CCN(c2nccc(-c3ccc4ccccc4c3)n2)C1` [1-({(3R)-1-[4-(2-naphthyl)pyrimidin-2-yl]pyrrolidin-3-yl}methyl)piperidin-2-one]: the midpoint of the response, the EC50, lay at 6.85 µM; the fold induction at 2 µM was 1.14; the fold induction at 20 µM is 2.33.
`COC(=O)C(NC(=O)OC(C)(C)C)C1CCN(c2nccc(-c3ccc4ccccc4c3)n2)CC1` (stereo not shown) [methyl [(tert-butoxycarbonyl)amino]{1-[4-(2-naphthyl)pyrimidin-2-yl]piperidin-4-yl}acetate]: the fold induction at 20 µM was 0.71.
For `CNCC1CCN(c2nccc(-c3ccc4ccccc4c3)n2)CC1` [N-methyl-1-{1-[4-(2-naphthyl)pyrimidin-2-yl]piperidin-4-yl}methanamine], the fold induction at 2 µM was 1.49, the fold induction at 20 µM came out at 0.01 and the “A = MAX FOLD Induction/DMSO CONTROL” value is 2.840 fold.
Take `NC(=O)NCC1CCN(c2nccc(-c3ccc4ccccc4c3)n2)C1` (stereo not shown) [N-({1-[4-(2-naphthyl)pyrimidin-2-yl]pyrrolidin-3-yl}methyl)urea]: the EC50 is 19.4 µM, the fold induction at 2 µM turned out to be 1.14, the fold induction at 20 µM amounted to 2.34 and the “A = MAX FOLD Induction/DMSO CONTROL” value is on record as 1.720 fold.
The corresponding values for `O=C1CN([C@H]2CCN(c3nccc(-c4ccc5ccccc5c4)n3)C2)CCN1` [4-{(3S)-1-[4-(2-naphthyl)pyrimidin-2-yl]pyrrolidin-3-yl}piperazin-2-one] are 6.88 µM, 1.28, 3.16 and 3.585 fold.
As for `CC(C)N(C)CCN(C)[C@@H]1CCN(c2nccc(-c3ccc4ccccc4c3)n2)C1` [N-isopropyl-N,N′-dimethyl-N′-{(3R)-1-[4-(2-naphthyl)pyrimidin-2-yl]pyrrolidin-3-yl}ethane-1,2-diamine], the fold induction at 2 µM was 2.2.
For `O=C1CN(CC2CCN(c3nccc(-c4ccc5ccccc5c4)n3)CC2)CCN1` [4-({1-[4-(2-naphthyl)pyrimidin-2-yl]piperidin-4-yl}methyl)piperazin-2-one], the fold induction at 2 µM was determined as 1.16 and the fold induction at 20 µM stood at 1.49.
Regarding `CCNCC1CCN(c2nccc(-c3ccc4ccccc4c3)n2)CC1` [N-({1-[4-(2-naphthyl)pyrimidin-2-yl]piperidin-4-yl}methyl)ethanamine], the EC50 amounted to 3.3 µM, the fold induction at 2 µM is 1.33, the fold induction at 20 µM came to 0.01 and the “A = MAX FOLD Induction/DMSO CONTROL” value is on record as 4.200 fold.
With `CC(C)NC(=O)N1CCC(CNc2nccc(-c3ccc4ccccc4c3)n2)CC1` [N-isopropyl-4-({[4-(2-naphthyl)pyrimidin-2-yl]amino}methyl)piperidine-1-carboxamide], the fold induction at 2 µM is 1.31 and the fold induction at 20 µM turned out to be 0.54.
Consider `CN(CCN(C)[C@@H]1CCN(c2nccc(-c3ccc4ccccc4c3)n2)C1)C(=O)c1ccccc1` [N-methyl-N-[2-(methyl{(3R)-1-[4-(2-naphthyl)pyrimidin-2-yl]pyrrolidin-3-yl}amino)ethyl]benzamide], for which the fold induction at 2 µM stood at 1.3.
